Results taken from ChEMBL document CHEMBL5360532, “Current scenario of quinolone hybrids with potential antibacterial activity against ESKAPE pathogens” (Eur J Med Chem, 2023).
pIC50: −log10 of the molar value. ≈ marks a conversion by molar mass, not a printed value.

Legend:
Escherichia coli [1] = experiment: Antibacterial activity against Escherichia coli ATCC 25922 assessed as bacterial growth inhibition by agar dilution assay; format: functional
Staphylococcus aureus [2] = experiment: Antibacterial activity against Staphylococcus aureus ATCC 6538p assessed as bacterial growth inhibition by agar dilution assay; format: functional
Escherichia coli [3] = experiment: Antibacterial activity against Escherichia coli assessed as bacterial growth inhibition by agar cup diffusion assay; format: functional
Pseudomonas aeruginosa [4] = experiment: Antibacterial activity against Pseudomonas aeruginosa assessed as bacterial growth inhibition by agar cup diffusion assay; format: functional
Klebsiella pneumoniae [5] = experiment: Antibacterial activity against Klebsiella pneumoniae assessed as bacterial growth inhibition by agar cup diffusion assay; format: functional
Staphylococcus aureus [6] = experiment: Antibacterial activity against Staphylococcus aureus assessed as bacterial growth inhibition by agar cup diffusion assay; format: functional
Staphylococcus aureus [7] = experiment: Antibacterial activity against methicillin resistant Staphylococcus aureus assessed as bacterial growth inhibition by agar cup diffusion assay; format: functional
Escherichia coli [8] = experiment: Antibacterial activity against Escherichia coli assessed as bacterial growth inhibition by broth microdilution assay; format: functional
Escherichia coli [9] = experiment: Antibacterial activity against Escherichia coli ATCC35218 assessed as bacterial growth inhibition measured after 18 to 24 hrs inhibition by broth microdilution assay; format: functional; settings: time 18-24 hrs
Pseudomonas aeruginosa [10] = experiment: Antibacterial activity against Pseudomonas aeruginosa ATCC43288 assessed as bacterial growth inhibition measured after 18 to 24 hrs inhibition by broth microdilution assay; format: functional; settings: time 18-24 hrs
Pseudomonas aeruginosa [11] = experiment: Antibacterial activity against Pseudomonas aeruginosa […] assessed as bacterial growth inhibition measured after 18 to 24 hrs inhibition by broth microdilution assay; format: functional; settings: time 18-24 hrs
Staphylococcus aureus [12] = experiment: Antibacterial activity against Staphylococcus aureus assessed as zone of inhibition at 50 mg/ml by agar well diffusion assay; format: functional; settings: read-out: IZ
Escherichia coli [13] = experiment: Antibacterial activity against Escherichia coli assessed as zone of inhibition at 50 mg/ml by agar well diffusion assay; format: functional; settings: read-out: IZ
Enterococcus faecalis [14] = experiment: Antibacterial activity against Enterococcus faecalis assessed as zone of inhibition at 50 mg/ml by agar well diffusion assay; format: functional; settings: read-out: IZ
Streptococcus pneumoniae = experiment: Antibacterial activity against Streptococcus pneumoniae assessed as zone of inhibition at 50 mg/ml by agar well diffusion assay; format: functional; settings: read-out: IZ
[15] = tested on: Mycobacterium tuberculosis; experiment: Antimycobacterial activity against Mycobacterium tuberculosis H37Rv assessed as bacterial growth inhibition; format: functional
Staphylococcus aureus [16] = experiment: Antibacterial activity against Staphylococcus aureus assessed as zone of inhibition at 50 mg/ml cup plate assay; format: functional; settings: read-out: IZ
Escherichia coli [17] = experiment: Antibacterial activity against Escherichia coli assessed as zone of inhibition at 50 mg/ml cup plate assay; format: functional; settings: read-out: IZ
[18] = tested on: Mycobacterium tuberculosis; experiment: Antimycobacterial activity against Mycobacterium tuberculosis H37Rv assessed as bacterial growth inhibition by LJ slant assay; format: functional
[19] = tested on: Mycobacterium tuberculosis; experiment: Antimycobacterial activity against multidrug Mycobacterium tuberculosis assessed as bacterial growth inhibition by LJ slant assay; format: functional
[20] = tested on: Mycobacterium tuberculosis; experiment: Antimycobacterial activity against extensive drug Mycobacterium tuberculosis assessed as bacterial growth inhibition by LJ slant assay; format: functional
Escherichia coli [21] = experiment: Antibacterial activity against Escherichia coli assessed as bacterial growth inhibition by agar well diffusion assay; format: functional, organism-based
Pseudomonas aeruginosa [22] = experiment: Antibacterial activity against Pseudomonas aeruginosa assessed as bacterial growth inhibition by agar well diffusion assay; format: functional, organism-based
Staphylococcus aureus [23] = experiment: Antibacterial activity against Staphylococcus aureus assessed as bacterial growth inhibition by agar well diffusion assay; format: functional, organism-based
Escherichia coli [24] = experiment: Antibacterial activity against Escherichia coli ATCC 25922 assessed as zone of inhibition at 50 mg/ml by agar diffusion assay; format: functional; settings: read-out: IZ
Klebsiella pneumoniae [25] = experiment: Antibacterial activity against Klebsiella pneumoniae assessed as zone of inhibition at 250 ug/ml by agar well diffusion assay; format: functional; settings: read-out: IZ
Pseudomonas aeruginosa [26] = experiment: Antibacterial activity against Pseudomonas aeruginosa assessed as zone of inhibition at 250 ug/ml by agar well diffusion assay; format: functional; settings: read-out: IZ
Staphylococcus aureus [27] = experiment: Antibacterial activity against Staphylococcus aureus assessed as zone of inhibition at 250 ug/ml by agar well diffusion assay; format: functional; settings: read-out: IZ
Escherichia coli [28] = experiment: Antibacterial activity against Escherichia coli assessed as bacterial growth inhibition measured after 20 hrs by serial dilution method; format: functional
Klebsiella pneumoniae [29] = experiment: Antibacterial activity against Klebsiella pneumoniae assessed as bacterial growth inhibition measured after 20 hrs by serial dilution method; format: functional
Pseudomonas aeruginosa [30] = experiment: Antibacterial activity against Pseudomonas aeruginosa assessed as bacterial growth inhibition measured after 20 hrs by serial dilution method; format: functional
Staphylococcus aureus [31] = experiment: Antibacterial activity against Staphylococcus aureus assessed as bacterial growth inhibition measured after 20 hrs by serial dilution method; format: functional
Staphylococcus aureus [32] = experiment: Antibacterial activity against Staphylococcus aureus MTCC 737 assessed as bacterial growth inhibition measured after 24 hrs by microdilution assay; format: functional
Staphylococcus aureus [33] = experiment: Antibacterial activity against Staphylococcus aureus MLS16 MTCC 2940 assessed as bacterial growth inhibition measured after 24 hrs by microdilution assay; format: functional
Escherichia coli [34] = experiment: Antibacterial activity against Escherichia coli MTCC 1687 assessed as bacterial growth inhibition measured after 24 hrs by microdilution assay; format: functional
Staphylococcus aureus [35] = experiment: Antibacterial activity against methicillin resistant Staphylococcus aureus ATCC 12493 assessed as bacterial growth inhibition by broth microdilution assay; format: functional
Acinetobacter baumannii [36] = experiment: Antibacterial activity against Acinetobacter baumannii assessed as bacterial growth inhibition by serial dilution method; format: functional
Escherichia coli [37] = experiment: Antibacterial activity against Escherichia coli assessed as bacterial growth inhibition by serial dilution method; format: functional
Staphylococcus aureus [38] = experiment: Antibacterial activity against Staphylococcus aureus ATCC 25923 assessed as bacterial growth inhibition measured after 16 hrs by broth microdilution assay; format: functional
Staphylococcus aureus [39] = experiment: Antibacterial activity against Staphylococcus aureus assessed as bacterial growth inhibition measured after 24 hrs by agar cup diffusion assay; format: functional
Klebsiella pneumoniae [40] = experiment: Antibacterial activity against Klebsiella pneumoniae assessed as bacterial growth inhibition by serial dilution method; format: functional
Staphylococcus aureus [41] = experiment: Antibacterial activity against Staphylococcus aureus AUMC B-73 assessed as bacterial growth inhibition by agar cup diffusion method; format: functional
Klebsiella pneumoniae [42] = experiment: Antibacterial activity against Klebsiella pneumoniae AUMC B-77 assessed as bacterial growth inhibition by agar cup diffusion method; format: functional
Enterococcus faecalis [43] = experiment: Antibacterial activity against Enterococcus faecalis assessed as bacterial growth inhibition by broth microdilution assay; format: functional
Escherichia coli [44] = experiment: Antibacterial activity against fluoroquinolone Escherichia coli assessed as bacterial growth inhibition by broth microdilution assay; format: functional
Staphylococcus aureus [45] = experiment: Antibacterial activity Staphylococcus aureus ATCC 25923 assessed as bacterial growth inhibition by broth microdilution assay; format: functional
Acinetobacter baumannii [46] = experiment: Antibacterial activity against Acinetobacter baumannii assessed as bacterial growth inhibition by broth microdilution assay; format: functional
Klebsiella pneumoniae [47] = experiment: Antibacterial activity against Klebsiella pneumoniae assessed as bacterial growth inhibition by broth microdilution assay; format: functional
Staphylococcus aureus [48] = experiment: Antibacterial activity against methicillin resistant Staphylococcus aureus assessed as bacterial growth inhibition by microdilution assay; format: functional

Cc1cc(N2CCN(c3cc4c(cc3F)c(=O)c(C(=O)O)cn4C3CC3)CC2)nc(Cl)n1
MIC (Escherichia coli [1]): 10.5 µg/mL (≈ 22.9 µM)
MIC (Staphylococcus aureus [2]): 7.4 µg/mL (≈ 16.2 µM)

O=C(O)c1cn(C2CC2)c2cc(N3CCNCC3)c(F)cc2c1=O [CIPROFLOXACIN]
MIC (Escherichia coli [3]): 1.9 µg/mL (≈ 5.73 µM)
MIC (Pseudomonas aeruginosa [4]): 8.62 µg/mL (≈ 26 µM)
MIC (Klebsiella pneumoniae [5]): 1.9 µg/mL (≈ 5.73 µM)
MIC (Staphylococcus aureus [6]): 0.5 µg/mL (≈ 1.51 µM)
MIC (Staphylococcus aureus [7]): 5.49 µg/mL (≈ 16.6 µM)
MIC (Escherichia coli [8]): 0.195 µg/mL (≈ 0.589 µM)
MIC (Escherichia coli [9]): ≤ 0.03 µg/mL
MIC (Pseudomonas aeruginosa [10]): ≤ 0.03 µg/mL
MIC (Pseudomonas aeruginosa [11]): ≤ 0.03 µg/mL
zone of inhibition at 50000 µg/mL (Staphylococcus aureus [12]): 33 mm
zone of inhibition at 50000 µg/mL (Escherichia coli [13]): 33 mm
zone of inhibition at 50000 µg/mL (Enterococcus faecalis [14]): 30 mm
zone of inhibition at 50000 µg/mL (Streptococcus pneumoniae): 30 mm
MIC [15]: 11.2 µg/mL (≈ 34 µM)
zone of inhibition at 50000 µg/mL (Staphylococcus aureus [16]): 11 mm
zone of inhibition at 50000 µg/mL (Escherichia coli [17]): 13 mm
MIC [18]: ≥ 2 µg/mL
MIC [19]: ≥ 2 µg/mL
MIC [20]: ≥ 2 µg/mL
pIC50 (Escherichia coli [21]): 4.76
MIC (Escherichia coli [21]): 1.06 µg/mL (≈ 3.2 µM)
pIC50 (Pseudomonas aeruginosa [22]): 4.76
MIC (Pseudomonas aeruginosa [22]): 1.06 µg/mL (≈ 3.2 µM)
pIC50 (Staphylococcus aureus [23]): 4.76
MIC (Staphylococcus aureus [23]): 1.06 µg/mL (≈ 3.2 µM)
zone of inhibition at 50000 µg/mL (Escherichia coli [24]): 26.3 mm
zone of inhibition at 250 µg/mL (Klebsiella pneumoniae [25]): 17 mm
zone of inhibition at 250 µg/mL (Pseudomonas aeruginosa [26]): 17 mm
zone of inhibition at 250 µg/mL (Staphylococcus aureus [27]): 17 mm
MIC (Escherichia coli [28]): 0.24 µg/mL (≈ 0.724 µM)
MIC (Klebsiella pneumoniae [29]): 0.24 µg/mL (≈ 0.724 µM)
MIC (Pseudomonas aeruginosa [30]): 0.24 µg/mL (≈ 0.724 µM)
MIC (Staphylococcus aureus [31]): 0.24 µg/mL (≈ 0.724 µM)
MIC (Staphylococcus aureus [32]): 4.68 µg/mL (≈ 14.1 µM)
MIC (Staphylococcus aureus [33]): 4.68 µg/mL (≈ 14.1 µM)
MIC (Escherichia coli [34]): 4.68 µg/mL (≈ 14.1 µM)
MIC (Staphylococcus aureus [35]): 0.49 µg/mL (≈ 1.48 µM)
MIC (Acinetobacter baumannii [36]): 0.312 µg/mL (≈ 0.942 µM)
MIC (Escherichia coli [37]): 0.312 µg/mL (≈ 0.942 µM)
MIC (Staphylococcus aureus [38]): 0.78 µg/mL (≈ 2.35 µM)
MIC (Staphylococcus aureus [39]): 3.25 µg/mL (≈ 9.81 µM)
MIC (Klebsiella pneumoniae [40]): 0.312 µg/mL (≈ 0.942 µM)
MIC (Staphylococcus aureus [41]): 1.6 µg/mL (≈ 4.83 µM)
MIC (Klebsiella pneumoniae [42]): 3.6 µg/mL (≈ 10.9 µM)
MIC (Enterococcus faecalis [43]): 0.72 µg/mL (≈ 2.17 µM)
MIC (Escherichia coli [44]): 0.72 µg/mL (≈ 2.17 µM)
MIC (Staphylococcus aureus [45]): 4 µg/mL (≈ 12.1 µM)
MIC (Acinetobacter baumannii [46]): 0.004 µg/mL (≈ 0.0121 µM)
MIC (Klebsiella pneumoniae [47]): 0.004 µg/mL (≈ 0.0121 µM)
MIC (Staphylococcus aureus [48]): 0.5 µg/mL
